Experimental data published in patent publication US20080038267A1, “Treatment Of Cancer” (NEUTEC PHARMA LIMITED, priority 2004, published 2008).
Converted amounts (≈) assume the structure as drawn. Where two headings read alike, the source gives them in different places.

Key:
[1] = system: HT29 cells; test: Checkerboard of Mycograb versus 5-FU/Folinic acid and/or Oxaliplatin, median effect analysis (CI), HT29 cells; format: cell-based, human; conditions: for Dm: median effect analysis (Calcusyn)
Text: (§1) Viable cells reduce resazurin to resorufin (pink).
CI values are shown for Fa50.
(§2) The cell lines were split and the cells counted.
as §2

[2] = system: HT29 cells; test: Cell Titer Blue viability, drugs without Mycograb or Mycograb alone, HT29 cells; format: cell-based, human; conditions: for IC50: 5-FU tested plus 1 mg/ml Folinic acid
Protocol: as §1
(§3) Cell growth was evaluated as described above.
Human colon adenocarcinoma grade 11 cell line HT29, was obtained from ECACC (ECACC number 91072201).
The cell lines were split and the cells counted. […] The next day, the cells were observed under phase contrast microscopy to ensure they had adhered to the plates and the supernatant medium removed by aspiration. 100 μl of fresh complete RPMI medium containing increasing two fold concentrations of study drug (5-FU 4.5-2400 μg/ml plus 1 mg/ml Folinic acid or Oxaliplatin 1-500 μg/ml) or medium alone (Media+2.5% DMSO for 5-FU control) was then added to the wells.

[3] = system: Hsp 90 in multi-chaperone complexes derived from tumour cells; conditions: higher than Hsp90 from normal cells (latent uncomplexed state); cited from earlier work
[4] = system: HS578T cells; test: Cell Titer Blue viability, single drug, HS578T cells; format: cell-based, human
Protocol: (§4) Viable cells reduce resazurin to resorufin (pink). Cell growth was evaluated as described above. […] The cell lines were split and cells counted. […] The next day, the cells were observed under phase contrast microscopy to ensure they had adhered to the plates and the supernatant medium removed by aspiration.

[5] = system: K562 cells; test: Cell Titer Blue viability, single drug, K562 cells
Protocol: as §1, §3
K562 was established from pleural effusion of person with chronic myelogenous leukaemia in terminal blast crisis. […] The line used in these experiments was the K562B. […] K562B has been compared to K562A and K562 C, with respect to growth kinetics, cell surface protein markers, surface antigens, cytogenetics and hemoglobin production.
(§5) The cell lines were counted. […] Fresh medium containing either two-fold increasing concentrations of Mycograb® (1.5-200 μg/ml), or medium alone was then added to the wells. The plate was returned to the incubator for 48 hours following which the cell titre blue assay was carried out, or viable counts were determined using a haemocytometer.
(§6) The cell lines were counted. […] The plates were returned to the incubator for 48 hours following which cell titre blue assays were carried out.

[6] = system: MCF7 cells; test: Cell Titer Blue viability, single drug, MCF7 cells; format: cell-based, human
Protocol: as §4

[7] = system: KU-812 cells; test: Cell Titer Blue viability, single drug, KU-812 cells; conditions: Mycograb on its own at 50 μg/ml
Protocol: as §1, §3, §5, §6

[8] = K562 cells, single drug, 48 hour incubation
[9] = Homo sapiens, Hs-578T, HS578T cells, single drug, 48 hour incubation, read-out: IC50
[10] = Homo sapiens, MCF7 cells, single drug, 48 hour incubation, read-out: IC50

O=c1[nH]cc(F)c(=O)[nH]1 [5-FU, 5-Fluorouracil]
IC50 ([1]; Homo sapiens, HT-29, median effect analysis (Calcusyn), read-out: Dm): 297 µg/mL
IC50 ([2]; Homo sapiens, HT-29, 48 hours, read-out: IC50): 150 µg/mL

C=CCNC1=C2C[C@@H](C)C[C@H](OC)[C@H](O)[C@@H](C)/C=C(\C)[C@H](OC(N)=O)[C@@H](OC)/C=C\C=C(/C)C(=O)NC(=CC1=O)C2=O [17AAG, 17-allylamino, 17-desmethoxygeldanamycin]
binding affinity for 17AAG, Hsp 90 in tumour-cell multi-chaperone complexes versus Hsp90 from normal cells [3]: 100 fold

N.N.[Cl][Pt][Cl] [Cisplatin]
IC50 ([4]; HS578T cells, single drug, 48 hour incubation): 12.5 µg/mL
IC50 [5, 8]: 12.5 µg/mL
IC50 ([6]; MCF7 cells, single drug, 48 hour incubation): 6 µg/mL

COc1cccc2c1C(=O)c1c(O)c3c(c(O)c1C2=O)C[C@@](O)(C(C)=O)C[C@@H]3O[C@H]1C[C@H](N)[C@H](O)[C@H](C)O1 [Daunorubicin]
IC50 ([4]; Homo sapiens, Hs-578T, 48 h): 1 µg/mL (≈ 1.9 µM)
IC50 ([5]; Homo sapiens, K562, 48 h): 0.75 µg/mL (≈ 1.42 µM)
IC50 ([6]; Homo sapiens, MCF7, 48 h): 1 µg/mL (≈ 1.9 µM)

CC(=O)O[C@@]12CO[C@@H]1C[C@H](O)[C@@]1(C)C(=O)[C@H](O)C3=C(C)[C@@H](OC(=O)[C@H](O)[C@@H](NC(=O)OC(C)(C)C)c4ccccc4)C[C@@](O)([C@@H](OC(=O)c4ccccc4)[C@H]21)C3(C)C [Docetaxel]
IC50 [4, 9]: 50 µg/mL (≈ 61.9 µM)
IC50 ([5]; Homo sapiens, K562, 48 h): 70 µg/mL (≈ 86.6 µM)
IC50 [6, 10]: 225 µg/mL (≈ 279 µM)

COc1cccc2c1C(=O)c1c(O)c3c(c(O)c1C2=O)C[C@@](O)(C(=O)CO)C[C@@H]3O[C@H]1C[C@H](N)[C@H](O)[C@H](C)O1 [Doxorubicin]
IC50 [4, 9]: 1 µg/mL (≈ 1.84 µM)
IC50 ([5]; Homo sapiens, K562, 48 h): 1 µg/mL (≈ 1.84 µM)
IC50 [6, 10]: 1.75 µg/mL (≈ 3.22 µM)

NC(=O)NO [Hydroxyurea]
IC50 [5, 8]: never reached

O=C1[O][Pt]2([NH][C@@H]3CCCC[C@H]3[NH]2)[O]C1=O [Oxaliplatin]
Dm [1]: 27.77
IC50 ([2]; 48 hours): 16 µg/mL

CC(=O)O[C@H]1C(=O)[C@@]2(C)[C@H]([C@H](OC(=O)c3ccccc3)[C@]3(O)C[C@H](OC(=O)[C@H](O)[C@@H](NC(=O)c4ccccc4)c4ccccc4)C(C)=C1C3(C)C)[C@]1(OC(C)=O)CO[C@@H]1C[C@@H]2O [Paclitaxel]
IC50 ([5]; Homo sapiens, K562, 48 h): 32 µg/mL (≈ 37.5 µM)
IC50 [6, 10]: 225 µg/mL (≈ 263 µM)

B1: Mycograb: anti-Hsp90 antibody disclosed in WO 01/76627, sequence of SEQ ID NO: 2, specific for epitope of peptide SEQ ID NO: 1 (protein)
chain: HMAEVQLVESGAEVKKPGESLRISCKGSGCIISSYWISWVRQMPGKGLEWMGKIDPGDSYINYSPSFQGHVTISADKSINTAYLQWNSLKASDTAMYYCARGGRDFGDSFDYWGQGTLVTVSSGGGGSGGGGSGGGGSDVVMTQSPSFLSAFVGDRITITCRASSGISRYLAWYQQAPGKAPKLLIYAASTLQTGVPSRFSGSGSGTEFTLTINSLQPEDFATYYCQHLNSYPLTFGGGTKVDIKRAA
Dm [1]: 96.47
reduction in cell viability [7]: 40%
reduction in cell viability ([2]; Mycograb on its own at 125 μg/ml): 50%
sensitivity of cell line to Mycograb alone ([4]; HS578T cells, increasing concentrations up to 400 mg/l): insensitive
reduction in cell viability ([5]; K562 cells, Mycograb on its own at 12.5 μg/ml): 40%
